Results as given in US9707212B2, “S-nitrosoglutathione reductase inhibitors” (Nivalis Therapeutics, Inc., priority 2010, dated 2017).

What was measured:
[1] = Mouse pharmacokinetic (PK) study; format: in vivo, male BALB/c mice; details: mice; for bioavailability: male, BALB/c, mouse, plasma, PO 10 mg/kg, IV 2 mg/kg
Description: The mouse was used to determine the pharmacokinetics of compounds of the invention. This species is widely used to assess the bioavailability of compounds by administering both oral (PO) and intravenous (IV) test articles. Efficacy of the compounds of the invention was compared by assessing plasma exposure in male BALB/c mice either via IV or PO administration at the times of peak activity.
Compounds of the invention were reconstituted in a phosphate buffered saline (PBS)/10% Solutol (HS 15) clear solution resulting in a concentration of 0.2 mg/ml and administered to mice (2 mg/kg) as a single IV dose. Animals were dosed via the lateral tail vein. Blood samples were collected at designated time points (0.083, 0.25, 0.5, 1, 2, 4, 8, 16, 24 hours) by cardiac puncture under isoflurane anesthesia (up to 1 ml blood per animal). The blood was collected into tubes containing Li-Heparin. The blood samples were kept on ice until centrifugation within approximately 30 minutes of collection. The plasma was transferred into labeled polypropylene tubes and frozen at −70° C. until analyzed by LC/MS/MS.
The compounds of the invention were reconstituted in 40% Propylene Glycol/40% Propylene Carbonate/20% of a 5% Sucrose clear solution resulting in a concentration of 2 mg/ml and administered to mice (10 mg/kg) as a single oral dose via gavage. Blood samples were collected at 0.25, 0.5, 1, 2, 4, 8, 12, 16, 20 and 24 hours post dose by cardiac puncture under isoflurane anesthesia. The blood was collected in tubes containing Li-Heparin. The blood samples were kept on ice until centrifugation within approximately 30 minutes of collection. The plasma was transferred into labeled polypropylene tubes and frozen at −70° C. until analyzed by LC/MS/MS.
Plasma samples at each time point were analyzed using a LC-MS/MS with a lower limit of quantification (LLOQ) of 1 ng/ml. Plasma was analyzed to determine the amount of the compound of the invention in each sample and regression curves generated for each compounds of the invention in the relevant matrixes.
WinNonlin analysis was used for calculating PK parameters for both the IV and PO administrations: • PK parameters for IV portion—AUClast; AUCINF; T1/2; Cl; Vss; Cmax; MRT • PK parameters for PO portion—AUClast; AUCINF; T1/2; Cmax; Cl, MRT.
In addition to the above PK parameters, bioavailability (% F) was calculated.

acute DSS-induced IBD = assay: Acute prophylactic model of DSS-induced IBD in mice; format: in vivo, male C57Bl/6 mice; details: for effect on colon injury: mouse model of acute DSS-induced IBD; for decrease of percent of mice with severe colon injury scores via endoscopy, of vehicle control / decrease of percent of mice with severe colon injury scores via histopathology, of vehicle control: prophylactic regimen
Description: Acute and chronic models of dextran sodium sulfate (DSS)-induced IBD in mice were used to explore efficacy of GSNORi against this disease. Acute and chronic DSS-induced IBD are widely used and well characterized models that induce pathological changes in the colon similar to those observed in the human disease. In these models and in human disease, epithelial cells within the crypts of the colon are disrupted, leading to dysfunction of the epithelial barrier and the ensuing tissue inflammation, edema, and ulceration. GSNORi therapy may benefit IBD by restoring s-nitrosoglutathione (GSNO) levels, and thus prevent or reverse the epithelial barrier dysfunction. Experimental IBD was induced by administration of DSS in the drinking water of male C57Bl/6 mice (N=8 to 10 mice per group) for 6 consecutive days. GSNORi was dosed orally at doses of 0.1 to 10 mg/kg/day for 10 days starting two days prior to and continuing two days post DSS exposure. Two days post DSS exposure, the effect of GSNORi was assessed in a blinded fashion via endoscopy and histopathology using a five point scale ranging from a score=0 (normal tissue) through a score=4 (ulcerative tissue damage and marked pathological changes). Levels of circulating cytokines involved in inflammatory pathways were also assessed. The effect of GSNORi was compared to vehicle treated controls. The corticosteroid, prednisolone, was used as the positive control in this study and was administered daily at 3 mg/kg/day via oral dosing. Naïve mice (N=5) were also assessed as a normal tissue control.

[2] = test system: cigarette smoke-induced COPD; assay: Acute (4 day) cigarette smoke exposure COPD model; format: in vivo, female C57Bl/6 mice; details: oral 10 mg/kg/day for 7 days, acute 4 day smoke model
Protocol: The efficacy of GSNOR inhibitors was assessed in a mouse model of chronic obstructive pulmonary disease (COPD) induced by short duration (4 days or 11 days) of exposure to cigarette smoke. Infiltration of inflammatory cells into the bronchoalveolar lavage fluid (BALF) and BALF levels of chemokines involved in inflammation and tissue turnover/repair were measured to assess the influences of GSNOR inhibitors on some of the early events associated with the initiation and progression of COPD.
Efficacy of GSNOR inhibitors against COPD was explored using acute (4 day) and subchronic (11 day) models of cigarette smoke-induced COPD in mice. […] In animal models, changes in lung pathology are only evident after extended (several months) duration of exposure to cigarette smoke, thus making chronic models prohibitive as effective screening tools. More recently, models exploring inflammatory responses after short duration (2 weeks or less) of smoke exposure in mice have been utilized as tools for screening efficacy and mechanisms of action of novel therapeutics against COPD. The key roles of inflammation in the initiation and progression of COPD, make these short duration models relevant for initial tests of efficacy of novel therapeutics.
Female C57Bl/6 mice (N=8 per group) were exposed to cigarette smoke using a whole body exposure chamber. Mice were exposed daily for 4 consecutive days to 4 cycles of smoke from 6 sequential cigarettes (Kentucky 3R4F without filter) with a 30 minute smoke free interval between cycles. GSNOR inhibitors were administered daily via oral dosing at 10 mg/kg/day for 7 days starting 2 days prior to smoke exposure and continuing 1 day post-exposure. The effects of GSNOR inhibitors were assessed by quantitating the numbers of total cells, leukocytes, and leukocytes differentials in the BALF via light microscopy and the levels of BALF chemokines via ELISA at approximately 24 h after the last smoke exposure. The effect of GSNOR inhibitors were compared to vehicle treated controls. The PDE4 inhibitor, roflumilast, was used as the positive control for the study. A group of naïve mice (N=8) was exposed to air and used as a negative control for the study.

[3] = test system: cigarette smoke-induced COPD; assay: Subchronic (11 day) cigarette smoke exposure COPD model; format: in vivo, female C57Bl/6 mice; details: oral 1 mg/kg/day for 11 days, subchronic 11 day model
Protocol: The efficacy of GSNOR inhibitors was assessed in a mouse model of chronic obstructive pulmonary disease (COPD) induced by short duration (4 days or 11 days) of exposure to cigarette smoke. Infiltration of inflammatory cells into the bronchoalveolar lavage fluid (BALF) and BALF levels of chemokines involved in inflammation and tissue turnover/repair were measured to assess the influences of GSNOR inhibitors on some of the early events associated with the initiation and progression of COPD. Efficacy of GSNOR inhibitors against COPD was explored using acute (4 day) and subchronic (11 day) models of cigarette smoke-induced COPD in mice. […] In animal models, changes in lung pathology are only evident after extended (several months) duration of exposure to cigarette smoke, thus making chronic models prohibitive as effective screening tools. […] The effects of GSNOR inhibitors were assessed by quantitating the number of total cells, and leukocytes differentials in the BALF via light microscopy at 24 h after the last exposure. The effect of GSNOR inhibitors were compared to vehicle treated controls and expressed as percent inhibition of the cigarette smoke induced increases in BALF cell numbers. […]

[4] = oral 10 mg/kg/day for 10 consecutive days

| Compound | bioavailability [1] | effect on colon injury (acute DSS-induced IBD) | decrease of percent of mice with severe colon injury scores via endoscopy, of vehicle control (acute DSS-induced IBD; [4]) | decrease of percent of mice with severe colon injury scores via histopathology, of vehicle control (acute DSS-induced IBD; [4]) | also measured |
| --- | --- | --- | --- | --- | --- |
| O=c1c(-c2ccc(-c3nnn[nH]3)cc2)c(C(F)(F)F)oc2cc(O)ccc12 [Example 1, 3-(4-(1H-tetrazol-5-yl)phenyl)-7-hydroxy-2-(trifluoromethyl)-4H-chromen-4-one] | 4 to 41% | attenuated colon injury | 75% | 17% |  |
| O=c1c2ccc(O)cc2oc(C(F)(F)F)c1[C@H]1CC[C@H](C(=O)O)CC1 [Example 3, (trans)-4-(7-hydroxy-4-oxo-2-(trifluoromethyl)-4H-chromen-3-yl)cyclohexanecarboxylic acid] | 4 to 41% | attenuated colon injury |  |  | decrease of percent of mice with severe colon injury scores via endoscopy, of vehicle control (acute DSS-induced IBD; oral 0.1 mg/kg/day for 10 consecutive days): 38%; decrease of percent of mice with severe colon injury scores via endoscopy, of vehicle control (acute DSS-induced IBD; oral 1 mg/kg/day for 10 consecutive days): 25%; effect on BALF chemokines [2]: restored BALF chemokines towards levels observed in naïve mice; effects on BALF cells compared with roflumilast [2]: comparable to or greater than those observed for roflumilast; inhibition of smoke-induced increase in eosinophils in BALF [2]: 100%; inhibition of smoke-induced increase in leukocytes in BALF [2]: 100%; inhibition of smoke-induced increase in macrophages in BALF [2]: 100%; inhibition of smoke-induced increase in neutrophils in BALF [2]: 100%; inhibition of smoke-induced increase in total cells in BALF [2]: 100% |
| O=c1[nH]c(-c2ccc(-c3c(C(F)(F)F)oc4cc(O)ccc4c3=O)cc2)no1 [Example 9, 3-(4-(7-hydroxy-4-oxo-2-(trifluoromethyl)-4H-chromen-3-yl)phenyl)-1,2,4-oxadiazol-5(4H)-one] | 4 to 41% |  |  |  |  |
| Cc1sc2cc(O)ccc2c(=O)c1-c1ccc(-c2nnn[nH]2)cc1 [Example 12, 3-(4-(1H-tetrazol-5-yl)phenyl)-7-hydroxy-2-methyl-4H-thiochromen-4-one] | 4 to 41% |  |  |  |  |

Now from value to compound, other results behind:

| bioavailability [1] | Compound | effect on colon injury (acute DSS-induced IBD) | decrease of percent of mice with severe colon injury scores via endoscopy, of vehicle control (acute DSS-induced IBD; [4]) | decrease of percent of mice with severe colon injury scores via histopathology, of vehicle control (acute DSS-induced IBD; [4]) | also measured |
| --- | --- | --- | --- | --- | --- |
| ~44% | O=C(O)c1ccc(-c2c(C(F)(F)F)oc3cc(O)ccc3c2=O)c(F)c1 [Example 16, 3-fluoro-4-(7-hydroxy-4-oxo-2-(trifluoromethyl)-4H-chromen-3-yl)benzoic acid] | attenuated colon injury | 58% | 15% | effects on BAL cells compared with roflumilast [3]: comparable to those of roflumilast |
| ~17% | O=C(O)c1ccc(-c2c(C(F)(F)F)oc3cc(O)ccc3c2=O)cc1 [comparator compound, 4-(7-hydroxy-4-oxo-2-(trifluoromethyl)-4H-chromen-3-yl)benzoic acid, reference compound] |  |  |  | clearance (Cl) relative to Example 16 [1]: about three times faster than Example 16 |
